Measurements from PMC10978157, “Environmental exposure to glyphosate does not inhibit human acetylcholinesterase and butyrylcholinesterase” (Archives of Industrial Hygiene and Toxicology, 2024).

How the values were obtained:
Type in all cases: biochemical
[1] = molecular target: T1, human BChE isolated from plasma (Homo sapiens, UniProt P06276); assay: Ellman assay; joint IC50 over all ATCh concentrations; details: read-out: Approx. IC50
T1 construct: native, purified from human plasma, gift from F. Nachon
Text: Ellman assay; joint IC50 over all ATCh concentrations on human BChE isolated from plasma

human recombinant AChE [2] = molecular target: T2, human recombinant AChE (Homo sapiens, UniProt P22303); assay: as above; details: read-out: Approx. IC50
T2 construct: recombinant human AChE, gift from F. Nachon
Text: Ellman assay; joint IC50 over all ATCh concentrations on human recombinant AChE

[3] = molecular target: T1, human BChE isolated from plasma; assay: Ellman assay
Text: Ellman assay on human BChE isolated from plasma

human recombinant AChE [4] = molecular target: T2, human recombinant AChE; assay: Ellman assay
Text: Ellman assay on human recombinant AChE

T2 sequence (P22303 32-614): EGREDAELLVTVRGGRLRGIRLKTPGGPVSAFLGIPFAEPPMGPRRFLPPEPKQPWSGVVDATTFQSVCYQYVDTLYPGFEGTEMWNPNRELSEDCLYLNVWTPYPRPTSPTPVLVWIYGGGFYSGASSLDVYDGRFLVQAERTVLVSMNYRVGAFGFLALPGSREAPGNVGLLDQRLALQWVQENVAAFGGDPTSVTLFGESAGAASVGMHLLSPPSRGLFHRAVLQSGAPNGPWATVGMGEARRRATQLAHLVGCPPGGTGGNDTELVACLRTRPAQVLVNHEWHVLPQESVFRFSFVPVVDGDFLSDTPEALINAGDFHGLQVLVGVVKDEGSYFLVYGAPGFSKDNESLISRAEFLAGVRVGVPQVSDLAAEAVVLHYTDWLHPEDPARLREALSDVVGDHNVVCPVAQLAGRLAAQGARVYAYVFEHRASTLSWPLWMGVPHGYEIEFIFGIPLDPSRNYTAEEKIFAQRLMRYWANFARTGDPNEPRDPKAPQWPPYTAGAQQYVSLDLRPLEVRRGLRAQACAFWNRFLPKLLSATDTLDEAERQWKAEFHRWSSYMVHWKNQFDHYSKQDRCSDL
T1 sequence (P06276 29-602): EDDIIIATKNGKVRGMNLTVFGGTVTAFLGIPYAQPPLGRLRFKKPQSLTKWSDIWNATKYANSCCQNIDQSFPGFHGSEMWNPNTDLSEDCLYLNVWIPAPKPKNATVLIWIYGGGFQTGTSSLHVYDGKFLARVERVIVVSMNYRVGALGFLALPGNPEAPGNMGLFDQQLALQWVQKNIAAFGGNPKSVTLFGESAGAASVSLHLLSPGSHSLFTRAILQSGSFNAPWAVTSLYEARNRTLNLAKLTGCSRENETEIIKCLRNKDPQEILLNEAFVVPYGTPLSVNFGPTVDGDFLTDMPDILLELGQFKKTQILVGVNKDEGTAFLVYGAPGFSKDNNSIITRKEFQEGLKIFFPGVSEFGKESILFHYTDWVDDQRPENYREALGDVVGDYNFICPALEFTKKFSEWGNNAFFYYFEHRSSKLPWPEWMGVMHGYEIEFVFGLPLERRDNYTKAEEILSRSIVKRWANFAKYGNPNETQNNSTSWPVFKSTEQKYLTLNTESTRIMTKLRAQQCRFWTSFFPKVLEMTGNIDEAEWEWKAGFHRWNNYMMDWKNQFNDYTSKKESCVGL

O=C(O)CNCP(=O)(O)O [glyphosate, N-(phosphonomethyl)glycine] showed an IC50 [1] of about 20 mM, an IC50 (human recombinant AChE [2]) of about 25.1 mM and a Ki [3] of 19.3 ± 1.8 mM. The Ki (human recombinant AChE [4]) was 28.4 ± 2.7 mM.
